The results in this text go back to patent US20070202079A1, “Therapeutic compositions and methods useful in modulating protein tyrosine phosphatases” (priority 2006, published 2007).

Each structure is given as a SMILES string.

The target in one assay is T1, PTP1B (Homo sapiens, UniProt P18031).
T1 construct: purchased Upstate Biotechnology Inc. (Lake Placid, N.Y.)
The assay is described as follows: in vitro PTPase assay, GST/PTP1B. The class given is biochemical. On the procedure:
In vitro PTPase activities were measured using the commercial protein tyrosine phosphatase assay kit (Upstate Biotechnology, Inc. (“UBI”)) following established procedure known to one of skill in the art. This assay measures the in vitro dephosphorylation of a synthetic phosphotyrosine peptide of the sequence Arg-Arg-Leu-Ile-Glu-Asp-Ala-Gle-T- -yr-Ala-Ala-Arg-Gly, wherein the tyrosine is phosphorylated (SEQ ID NO: 3). Briefly, 0.01 μg of GST/PTPase fusion proteins was incubated in 50 μl of Tris buffer (10 mM Tris, pH 7.4) containing different concentrations of inhibitors or chemicals (0-1,000 μg/ml) at 22° C. for 10 minutes, followed by addition of 0.2 mM of the phosphotyrosine peptide and incubation at 22° C. for 18 hours. 100 μl of Malachite Green solution was added and incubated for 5 minutes, and the absorbance at 660 nm was measured after 5 minutes.
In vitro PTPase assays were used to determine the effects of levamisole (Sigma), pentamidine (American Pharmaceutical Partners, Inc.), and ketoconazole (Sigma) on recombinant PTPases, following established procedures (Pathak et al., J. Immunol. 167, 3391 (2001); Pathak et al., Leukemia 16, 2285 (2002), Yi et al., J. Immunol. 169, 5978 (2002)) using a synthetic phosphotyrosine peptide or DiFMUP as the substrate as detailed above in section I.A.2.

For assay [1], the system named is Stat1 tyrosine phosphorylation. Put plainly: IFN-alpha-induced Stat1 tyrosine phosphorylation, Western blotting. The class given is cell-based, human. The method, then: For induction of Stat1 tyrosine phosphorylation by IFN-alpha in the absence or presence of sodium stibogluconate, cells grown in 10% FCS RPMI 1640 medium at 37° C. were stimulated with IFN-alpha (50 u/ml) for various time points and treated with or without sodium stibogluconate for 5 minutes prior to termination by lysing the cells in cold lysis buffer (1% NP-40; 50 mM Tris, pH 7.4; 100 mM NaCl; 1 mM EDTA, 10% glycerol, 10 mM sodium molybdic acid and 4 mM AEBSF).
Cell lysates were prepared by lysing cells in cold lysis buffer for 30 min and cleared by centrifuging at 14,000 rpm at 4° C. for 15 min. For SDS-PAGE, cell lysates were mixed with equal volume of 2×SDS-PAGE sample buffer, heated at 90° C. for 5 min and separated in 10% SDS-PAGE gels. Cellular proteins in SDS-PAGE gels were transferred to nitrocellulose membrane (Schleicher & Schuell, Keene, N.H.), blocked in 5% milk, probed with antibodies and detected by using an enhanced chemiluminescence kit (ECL, Amersham, Arlington Heights, Ill.).
(A western blot detects proteins with antibodies after separation by electrophoresis.)

The test system of another assay is Baf3 cells. The assay is described as follows: Baf3 cell proliferation assay. Type of assay: cell-based, murine. On the procedure:
The murine hematopoietic cell line Baf3 was maintained in RPMI 1640 medium supplemented with 10% fetal calf serum (FCS) and murine IL-3 (20 units/ml) as described previously in Damen et al., J. Biol. Chem. 270, 23402 (1995). Human myeloid cell line TF-1 was maintained in RPMI 1640 supplemented with 10% FCS and 40 ng/ml of recombinant human GM-CSF as described previously in Thomassen et al., Clin. Immunol. 95, 85 (2000). For cell proliferation assays, cells were washed in 10% FCS medium twice, resuspended in 10% FCS medium, incubated at 37° C. for 16 hours, and then cultured at 37° C. in 10% FCS medium containing various amounts of cytokines, sodium stibogluconate, or potassium antimonyl tartrate for 3-6 days as indicated. The cell numbers in proliferation assays were determined by an MTT assay or by microscopic cell counting as indicated.

The next assay has as its target T2, Flag-PRL-1 (Homo sapiens, UniProt Q93096).
T2 construct: expressed in transfected cells; host or cells: WM9 human melanoma cell line (pBabepuro, puromycin-selected)
The assay is described as follows: immunocomplex PTPase assay, NIH3T3 Flag-PRL-1 transfectants. The class given is cell-based, mouse. The following applies: cells treated 5 min. On the procedure:
Immunocomplex PTPase assays were performed to assess the effects of sodium stibogluconate on intracellular PTPases. Cells were untreated or treated with sodium stibogluconate for 5 minutes, washed with fresh medium and then lysed in cold lysis buffer (50 mM Tris, pH 7.4; 150 mM NaCl; 1% NP40; 2 mM PMSF; 20 μg/ml of Aprotinin). The lysates were incubated with an anti-Flag antibody in immunoprecipitation assays. The immunocomplexes were collected with protein G sepharose beads (Pharmacia) and washed in cold lysis buffer for 4 times. […] C. for 18 hrs. 100 μL of malachite green solution (UBI) was added to each reaction prior to measurement of OD660 to quantify the amounts of free phosphate cleaved by the PTPases from the peptide substrate (Pathak et al., J. Immunol. 167, 3391 (2001)). The remaining 10% contents of individual samples were analyzed by SDS-PAGE/Western blotting to quantify the relative amounts of the phosphatase proteins. […]
The effects of sodium stibogluconate on intracellular PTPases were assessed using NIH3T3 or WM9 transfectants. […]

The next assay concerns C42. The assay is described as follows: C42 cell growth, MTT. Type of assay: cell-based, human. The method, then:
For cell proliferation assays, cells were grown in 10% FCS culture medium containing various amounts of IFNs and/or sodium stibogluconate in 96 well plates and cultured at 37° C. for 3 or 6 days as indicated. The numbers of viable cells in proliferation assays were determined by MTT assays as described in Phatak et al., J. Immunol. 167, 3391 (2001).

T1 sequence (P18031 whole entry, species assumed): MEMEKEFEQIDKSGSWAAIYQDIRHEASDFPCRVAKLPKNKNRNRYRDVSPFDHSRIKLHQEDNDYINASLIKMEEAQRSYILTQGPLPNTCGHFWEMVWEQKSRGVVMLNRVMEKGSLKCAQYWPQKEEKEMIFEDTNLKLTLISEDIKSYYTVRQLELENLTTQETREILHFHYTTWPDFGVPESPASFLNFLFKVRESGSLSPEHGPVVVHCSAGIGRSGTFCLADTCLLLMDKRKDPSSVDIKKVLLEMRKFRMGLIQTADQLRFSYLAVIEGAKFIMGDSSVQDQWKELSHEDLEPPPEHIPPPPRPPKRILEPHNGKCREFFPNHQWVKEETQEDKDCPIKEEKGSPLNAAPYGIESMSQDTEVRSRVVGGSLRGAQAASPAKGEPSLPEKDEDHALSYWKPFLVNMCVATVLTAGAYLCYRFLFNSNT
T2 sequence (Q93096 whole entry): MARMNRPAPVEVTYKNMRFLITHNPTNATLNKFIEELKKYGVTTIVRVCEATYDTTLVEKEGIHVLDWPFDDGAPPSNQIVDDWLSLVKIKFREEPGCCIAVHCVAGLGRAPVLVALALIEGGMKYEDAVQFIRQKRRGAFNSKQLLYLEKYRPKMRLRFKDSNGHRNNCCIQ

On to `O.O.O.O.O.O.O.O.O.O=C([O-])[C@@H]1[O][Sb]2([O-])([O][Sb]34([OH])[O][C@H]([C@H](O)CO)[C@H]([O]3)[C@H](C(=O)[O-])[O]4)[O][C@H]([C@H](O)CO)[C@@H]1[O]2.[Na+].[Na+].[Na+]` [sodium stibogluconate], for which the “inhibition of PTP1B compared with the three drugs” value against PTP1B is “only modestly effective”. Further, the “IFN-alpha-induced Stat1 tyrosine phosphorylation” value in assay [1] (DR cells, 10 μg/ml, 30 min post-stimulation) is recorded as “approximately two folds greater than control”; in assay [1] (DU145, 5 hours post-stimulation), “Enhanced Stat1 tyrosine phosphorylation”; in assay [1] (WM9, 5 hours post-stimulation), “Enhanced Stat1 tyrosine phosphorylation”; in assay [1] (WM35) it was “failed to enhance”; in assay [1] (WiT49-N1) it was “failed to enhance”. Besides, the “Stat1 tyrosine phosphorylation by drug itself” value in assay [1] (DR cells, absence of IFN-alpha) is “failed to induce Stat1 tyrosine phosphorylation”. For the same compound, in the assay with Baf3 cells (1,000 μg/ml), the “effect on IL-3-induced Baf3 growth” value is “suppressed IL-3-induced Baf3 growth”. Moreover, the “proliferation and viability in the absence of IL-3” value in the assay on Baf3 cells (day 3 culture) is given as “failed to support cell proliferation or maintain cell viability”. Further, the “PTPase activity of immunocomplexes from treated Flag-PRL-1 transfectants” value on Flag-PRL-1 is “little PTPase activities”. In the assay on C42, the “sensitivity of C42 cells” value was “highly resistant”.
